According to patent publication US5714467A, “Antibacterial and antimalarial hybrid peptides” (The Rockefeller University, priority 1993, dated 1998):
Where no end group is shown, it is not given here.

Columns and labels:
Sheep Red Cells = assay: lysis of sheep red blood cells (lysis assay or SRC plate assay); type: cell-based; details: for Lethal concentration, SRC = Sheep Red Cells: Table 3
Description: These values were obtained by either the lysis assay normally used for melittin or by an adaptation of the antibacterial inhibition zone assay of the above-cited Hultmark et al articles to plates with sheep red cells (SRC). With respect to the latter, sterile agarose plates contained 6 ml of medium With 1% agarose, 0.9% NaCl and 10% SRC suspended in Alsevers solution. A dilution series of peptide was applied in 3 mm wells each loaded with 3 μl of the respective samples. The plates were incubated at 30° C. for 24 h, the zones were recorded and LC values calculated as described in the Hultmark et al articles. Clear zones were recorded after a few hours of incubation and the use of such data gave an LC value of the same order as readings after 24 h. This plate assay is faster and more convenient than the lysis assay normally used for melittin.

Candida albicans = assay: inhibition zone assay, lethal concentration; type: cell-based; details: Table 2, footnote c: incubation overnight at 37° C.
Description: (§1) The products of the invention were tested for activity against a variety of test organisms selected to represent a number of different types of pathogens some of them known to be particularly virulent by the inhibition zone assay of Hoffmann et al (1981) Insect Biochem. 11 537-548 which is incorporated herein by reference. Thin agar or agarose plates (8.5 cm diameter) were prepared with 6 ml of rich medium containing 100 ug/ml of streptomycin and 2×10^5 viable cells of a test organism resistant to streptomycin. Wells of […] diameter were punched in the plates and 3 ul of serially diluted samples were placed in the wells. The diameters of the zones of inhibition around the wells were measured after overnight incubation at 30° or 37° C. For each peptide the squares of the zone diameters were plotted against the logarithm of the concentration, and from the slopes and intercepts the lethal concentrations were calculated as described by Hultmark (1983) EMBO J. 2, 571-76 or Hultmark et al (1982) Eur. J. Biochem. 127 207-217 each of which being incorporated herein by reference.
(§2) It was observed during testing that basic peptides often bind to agar plates, but not so much to agarose. Therefore those lethal concentrations determined on agar may, in fact, be substantially higher than the actual lethal concentrations.

[1] = test system: Xenorhabdus nematophilis Xn21; assay: inhibition zone assay, lethal concentration; type: cell-based; details: Table 2, footnote c: incubation overnight at 37° C.
Description: as §1, §2

[2] = test system: Staphylococcus haemolyticus; assay: inhibition zone assay, lethal concentration; type: cell-based; details: Table 2, footnote c: incubation overnight at 37° C.
Description: as §1, §2

Saccharomyces cerevisiae = assay: inhibition zone assay, lethal concentration; type: cell-based; details: Table 2, footnote c: incubation overnight at 37° C.
Description: as §1, §2

[3] = test system: Staphylococcus aureus Cowan I; assay: inhibition zone assay, lethal concentration; type: cell-based; details: for Lethal concentration, Staph = S. aureus Cowan I: Table 3, agarose plates, overnight incubation at 30° C.
Description: as §1, §2
(§3) Novel peptides CA(1-8)M(1-18), CA(1-9)M(1-17), CB(1-13)M(1-13), CA(1-17)M(1-9), CA(1-18)M(1-8), M(1-13)CA(1-22) and M(1-13)CA(1-13) were prepared as described above (see Examples 1-6). These novel peptides and CA, CB, and M were tested for activity against a variety of organisms selected to represent a number of different types of pathogens, some of them known to be particularly virulent by the inhibition zone assay of Hoffmann et al (1981), Insect Biochem. 11 537-48. As in Examples 1-6, thin agarose plates were prepared with the respective organisms. The diameters of the zones of inhibition were measured after overnight incubation at 30° C. The lethal concentrations were determined as described above (see Examples 1-6; Hultmark et al articles cited thereat).

Bacillus subtilis Bs11 = assay: inhibition zone assay, lethal concentration; type: cell-based
Description: as §1, §2, §3

Escherichia coli D21 = assay: inhibition zone assay, lethal concentration; type: cell-based; details: for Lethal concentration, D21 = E. coli: Table 3, agarose plates, overnight incubation at 30° C.
Description: as §1, §2, §3

Streptococcus pyogenes = assay: inhibition zone assay, lethal concentration; type: cell-based; details: for Lethal concentration, Strep = S. pyogenes: Table 3, agarose plates, overnight incubation at 30° C.
Description: as §1, §2, §3

[4] = test system: Pseudomonas aeruginosa OT97; assay: inhibition zone assay, lethal concentration; type: cell-based; details: for Lethal concentration, OT97 = P. aeruginosa: Table 3, agarose plates, overnight incubation at 30° C.
Description: as §1, §2, §3

[5] = test system: Plasmodium falciparium strain F32 (Tanzania), blood stream forms; assay: inhibition of reinvasion of human red cells by malaria parasite; type: cell-based, Plasmodium falciparum; details: for IC50: Table 4, P. falciparum, read-out: 50% Reinvasion Inhibition; for antimalarial potency in words: FIG. 1, blood stream form of Plasmodium falciparium
Description: Hybrid peptides CA(1-13)M(1-13) and CA(1-8)M(1-18) were prepared as described above (see Examples 1-6) and were assayed for activity against the blood stream form of Plasmodium falciparium. For comparison the test included cecropins A and B and the frog skin peptides magainin 2 and PGLa.
The blood stream forms of the malaria parasite Plasmodium falciparium, primarily late trophozoites and early schizonts, were assayed by recording the inhibition of the reinvasion of human red cells by the method of Wahlin, B., et al, (1984) Proc. Nat'l Acad. Sci. USA 81, 7912-16, incorporated herein by reference. Quadruplicate microcultures of strain F32 (Tanzania) were incubated for 20 hrs at 37° C. in a complete tissue culture medium, with or without different concentrations of the peptides to be assayed. After acridine orange staining, the percentage of newly infected red cells was scored in a fluorescence microscope. For each culture 40,000 red cells were analysed for parasitic infection. Duplicate assays were run for CA(1-13)M(1-13).

Escherichia coli D22 = assay: inhibition zone assay, lethal concentration; type: cell-based; details: Table 2, footnote c: incubation overnight at 37° C.
Description: as §1, §2

Bacillus megaterium BM11 = assay: inhibition zone assay, lethal concentration; type: cell-based; details: Table 2, footnote c: incubation overnight at 37° C.
Description: as §1, §2

Micrococcus luteus Ml11 = assay: inhibition zone assay, lethal concentration; type: cell-based; details: Table 2, footnote c: incubation overnight at 37° C.
Description: as §1, §2

[6] = Table 2, footnote a: incubation overnight at 30° C. as well as at 37° C.
[7] = Table 2, footnote c: incubation overnight at 37° C.
[8] = Table 2, no incubation footnote

Compound: CC[C@H](C)[C@H](NC(=O)CN)C(=O)NCC(=O)N[C@@H](C)C(=O)N[C@H](C(=O)N[C@@H](CC(C)C)C(=O)N[C@@H](CCCCN)C(=O)N[C@H](C(=O)N[C@@H](CC(C)C)C(=O)N[C@H](C(=O)N[C@H](C(=O)NCC(=O)N[C@@H](CC(C)C)C(=O)N[C@@H](CCCCN)C(=O)N[C@@H](Cc1c[nH]c2ccccc12)C(=O)N[C@@H](CCCCN)C(=O)N[C@@H](CC(C)C)C(=O)N[C@@H](Cc1ccccc1)C(=O)N[C@@H](CCCCN)C(=O)N[C@@H](CCCCN)C(=O)N[C@H](C(=O)N[C@@H](CCC(=O)O)C(=O)N[C@@H](CCCCN)C(=O)N[C@H](C(=O)NCC(=O)N[C@@H](CCC(N)=O)C(=O)N[C@@H](CC(N)=O)C(=O)N[C@H](C(=O)N[C@@H](CCCNC(=N)N)C(=O)N[C@@H](CC(=O)O)C(=O)NCC(=O)N[C@H](C(=O)N[C@H](C(=O)N[C@@H](CCCCN)C(=O)N[C@@H](C)C(N)=O)[C@@H](C)CC)[C@@H](C)CC)[C@@H](C)CC)C(C)C)[C@@H](C)CC)[C@@H](C)O)[C@@H](C)O)C(C)C)C(C)C [M(1-13)CA(1-22)]
- Lethal concentration, SRC = Sheep Red Cells (Sheep Red Cells): 40 µM

Compound: CC[C@H](C)[C@H](NC(=O)CN)C(=O)NCC(=O)N[C@@H](C)C(=O)N[C@H](C(=O)N[C@@H](CC(C)C)C(=O)N[C@@H](CCCCN)C(=O)N[C@H](C(=O)N[C@@H](CC(C)C)C(=O)N[C@H](C(=O)N[C@H](C(=O)NCC(=O)N[C@@H](CC(C)C)C(=O)N1CCC[C@H]1C(=O)N[C@@H](C)C(=O)N[C@@H](CC(C)C)C(=O)N[C@H](C(=O)N[C@@H](CO)C(=O)N[C@@H](Cc1c[nH]c2ccccc12)C(=O)N[C@H](C(=O)N[C@@H](CCCCN)C(=O)N[C@@H](CCCNC(=N)N)C(=O)N[C@@H](CCCCN)C(=O)N[C@@H](CCCNC(=N)N)C(=O)N[C@@H](CCC(N)=O)C(=O)N[C@@H](CCC(N)=O)C(N)=O)[C@@H](C)CC)[C@@H](C)CC)[C@@H](C)O)[C@@H](C)O)C(C)C)C(C)C [M(1-26), Melittin]
- Lethal concentration, Candida albicans (Candida albicans): 150 µM
- Lethal concentration, Xenorhabdus nematophilis Xn21 [1]: 9 to 50 µM
- Lethal concentration, Staphylococcus haemolyticus [2]: 0.3 µM
- Lethal concentration, Saccharomyces cerevisiae (Saccharomyces cerevisiae): 10 µM
- Lethal concentration, Staphylococcus aureus Cowan I [3, 6]: 0.2 µM
- Lethal concentration, Staph = S. aureus Cowan I [3]: 0.2 µM
- Lethal concentration, Bacillus subtilis Bs11 (Medium E) (Bacillus subtilis Bs11; Table 2, Medium E, no incubation footnote): 0.3 µM
- Lethal concentration, Bacillus subtilis Bs11 (Bacillus subtilis Bs11; [6]): 0.2 µM
- Lethal concentration, Bs11 = B. subtilis (Bacillus subtilis Bs11; Table 3, agarose plates, overnight incubation at 30° C.): 0.2 µM
- Lethal concentration, Bs11 + ME = B. subtilis, plates prepared with medium E (Bacillus subtilis Bs11; Table 3, medium E, agarose plates, overnight incubation at 30° C.): 0.3 µM
- Lethal concentration, Escherichia coli D21 (Escherichia coli D21; [6]): 0.8 µM
- Lethal concentration, D21 = E. coli (Escherichia coli D21): 0.8 µM
- Lethal concentration, Streptococcus pyogenes (Streptococcus pyogenes; [6]): 0.5 µM
- Lethal concentration, Strep = S. pyogenes (Streptococcus pyogenes): 0.5 µM
- Lethal concentration, Pseudomonas aeruginosa OT97 [4, 6]: 3 µM
- Lethal concentration, OT97 = P. aeruginosa [4]: 3 µM
- Lethal concentration, Sheep Red Cells (Sheep Red Cells; Table 2, footnote b: incubation overnight at 30° C.): 4 to 8 µM
- Lethal concentration, Sheep Red Cells (Sheep Red Cells; [7]): 4 to 6 µM
- Lethal concentration, SRC = Sheep Red Cells (Sheep Red Cells): 4 to 8 µM

Compound: CC[C@H](C)[C@H](NC(=O)CNC(=O)[C@H](CCC(N)=O)NC(=O)[C@H](CCC(N)=O)NC(=O)[C@H](CCCNC(=N)N)NC(=O)[C@H](CCCCN)NC(=O)[C@H](CCCNC(=N)N)NC(=O)[C@H](CCCCN)NC(=O)[C@@H](NC(=O)[C@H](Cc1c[nH]c2ccccc12)NC(=O)[C@H](CO)NC(=O)[C@@H](NC(=O)[C@@H](N)CC(C)C)[C@@H](C)CC)[C@@H](C)CC)C(=O)NCC(=O)N[C@@H](C)C(=O)N[C@H](C(=O)N[C@@H](CC(C)C)C(=O)N[C@@H](CCCCN)C(=O)N[C@H](C(=O)N[C@@H](CC(C)C)C(=O)N[C@H](C(=O)N[C@H](C(=O)NCC(=O)N[C@@H](CC(C)C)C(N)=O)[C@@H](C)O)[C@@H](C)O)C(C)C)C(C)C [M(16-26)M(1-13)]
- improvement in red cell lysis concentration over natural melittin (Sheep Red Cells; 240 μM versus 4-6 μM): 40-60 fold
- Lethal concentration, Sheep Red Cells (Sheep Red Cells; [6]): > 200 µM
- concentration lytic to sheep red blood cells (Sheep Red Cells; running text): > 240 µM

Compound: Cecropin P-1
- IC50 [5]: 90 µM

Compound: KWKLFKKAVLKVLTT-NH2 [CA(1-7)M(4-11)]
- Lethal concentration, Sheep Red Cells (Sheep Red Cells; [8]): > 600 µM

Compound: KWKLFKKGAVLKVLT-NH2 [CA(1-7)M(3-10)]
- Lethal concentration, Sheep Red Cells (Sheep Red Cells; [8]): > 600 µM

Compound: KWKLFKKGIGAVLKV-NH2 [CA(1-7)M(1-8)]
- Lethal concentration, Sheep Red Cells (Sheep Red Cells; [8]): > 200 µM

Compound: KWKLFKKIEKVGQNIRDGGIGAVLKV-NH2 [CA(1-18)M(1-8)]
- Lethal concentration, SRC = Sheep Red Cells (Sheep Red Cells): 600 µM

Compound: KWKLFKKIEKVGQNIRDGIGAVLKVL-NH2 [CA(1-17)M(1-9)]
- Lethal concentration, SRC = Sheep Red Cells (Sheep Red Cells): 600 µM

Compound: KWKLFKKIGAVLKVL-NH2 [CA(1-7)M(2-9)]
- Lethal concentration, Sheep Red Cells (Sheep Red Cells; [8]): > 600 µM

Compound: KWKLFKKIGIGAVLKVLT-NH2 [CA(1-8)M(1-10)]
- Lethal concentration, Sheep Red Cells (Sheep Red Cells; [8]): > 600 µM

Compound: KWKLFKKLKVLTTGL-NH2 [CA(1-7)M(6-13)]
- Lethal concentration, Sheep Red Cells (Sheep Red Cells; [8]): > 500 µM

Compound: KWKLFKKVLKVLTTG-NH2 [CA(1-7)M(5-12)]
- Lethal concentration, Sheep Red Cells (Sheep Red Cells; [8]): > 500 µM

Compound: KWKVFKKIEKMGRNIRNGIVKAGPAIAVLGEAKAL-NH2 [CB(1-35), Cecropin B]
- antimalarial potency in words [5]: about as potent as Mag
- IC50 [5]: 110 µM
- Lethal concentration, Staph = S. aureus Cowan I [3]: 200 µM
- Lethal concentration, D21 = E. coli (Escherichia coli D21): 0.3 µM
- Lethal concentration, Strep = S. pyogenes (Streptococcus pyogenes): 12 µM
- Lethal concentration, OT97 = P. aeruginosa [4]: 1 µM

Compound: PGLa [PGL^a]
- antimalarial potency in words [5]: intermediate activity
- IC50 [5]: 40 µM

Compound: WNPFKELEKVGQRVRDAVISAGPAVATVAQATALAK-NH2 [CD(2-37), Cecropin D]
- Lethal concentration, Escherichia coli D22 (Escherichia coli D22): 0.6 µM
- Lethal concentration, Bacillus megaterium BM11 (Bacillus megaterium BM11): 30 µM
- Lethal concentration, Micrococcus luteus Ml11 (Micrococcus luteus Ml11): 12 µM
- Lethal concentration, Bacillus subtilis Bs11 (Bacillus subtilis Bs11; [7]): 100 µM
- Lethal concentration, Escherichia coli D21 (Escherichia coli D21; [7]): 3.6 µM
- Lethal concentration, Pseudomonas aeruginosa OT97 [4, 7]: 90 µM

Compound: magainin 2
- IC50 [5]: 80 µM
